Here are results for 13 compounds from patent US9700044B2, “Symmetrical marinopyrrole derivatives as potential antibiotic agents” (priority 2013, dated 2017).

Holding throughout (type): cell-based
The test system of assay [1] is Methicillin-resistant Staphylococcus aureus with the mec A gene and PBP2a (WHO-31). Briefly: MIC by agar dilution, MRSA (WHO-31). The note with it: WHO-31. From the text: (§1) A panel of multiple resistance Gram-positive and Gram-negative pathogens listed in Tables 1 and 2 was used to evaluate the antimicrobial activity of marinopyrrole derivatives (Chart 1) with vancomycin as a positive control. Except for those marked with WHO, all pathogens were isolated between 2008 and 2010 in hospitals located in Beijing; Guangzhou; Sichuan, Shandong and Jiangsu Province. Determination of the minimum inhibitory concentration (MIC) was done by the guidelines of the Clinical and Laboratory Standards Institute (Clinical and Laboratory Standards Institute, Performance standards for antimicrobial susceptibility testing, seventeenth informational supplement. 2007, 27, M100-S17). The susceptibility tests of a bacterial strain to a marinopyrrole derivative were performed by an agar dilution method. Briefly, each sterile petri dish contained a final volume of 15 mL comprising 1 mL of a marinopyrrole derivative and 14 mL of Mueller-Hinton broth. The concentrations of a marinopyrrole derivative are 128, 64, 32, 16, 8, 4, 2, 1, 0.5, 0.25, 0.125, 0.06, 0.03, 0.015 and 0.008 μg/mL. The petri dish containing the broth with different concentration of antibiotics was first inoculated with 10^5 CFU/mL (Denley A400, United Kingdom) and the culture was then incubated with shaking at 35-37° C. for 18-20 h. The potency of the compound was determined and expressed as minimum inhibitory concentration (MIC) in μg/mL. The MIC was determined as the lowest concentration of antibiotic that inhibited visible bacterial growth.

The subject of assay [2] is Moderately vancomycin-resistant Enterococci faecium with the VanA gene (WHO-3). Briefly: MIC by agar dilution, VRE (WHO-3). The note with it: for MIC: WHO-3.
From the text: as §1

Assay [3] deals with Oxacillin-resistant Staphylococcus aureus (WHO-25). Briefly: MIC by agar dilution, ORSA (WHO-25). The note with it: WHO-25.
From the text: as §1

Assay [4] deals with Methicillin-resistant Staphylococcus aureus (MRSA). The experiment in a line: MIC by agar dilution, MRSA clinical isolates. The following applies: for MIC: MRSA, data from 8 isolates.
From the text: as §1

Assay [5] has as its system Methicillin-resistant Staphylococcus epidermidis (MRSE). The experiment in a line: MIC by agar dilution, MRSE clinical isolates. The following applies: for MIC: MRSE.
From the text: as §1

Assay [6] relates to Methicillin-susceptible Staphylococcus aureus (MSSA). Briefly: MIC by agar dilution, MSSA clinical isolates. The note with it: for MIC: MSSA, data from 8 isolates.
From the text: as §1

The mark [7] stands for this setting: Staphylococcus aureus, Table 2, read-out: MIC.
Where [8] appears, read: Enterococcus, Table 2, read-out: MIC.
Where [9] appears, read: Staphylococcus epidermidis, Table 2, data from 4 isolates, read-out: MIC.
The mark [10] stands for this setting: Staphylococcus aureus, Table 3, read-out: MIC.
[11] abbreviates: Staphylococcus epidermidis, Table 3, data from 4 isolates, read-out: MIC.

Converted amounts (≈) assume the structure as drawn. “And” between values parts separate entries of the source, which are not always exact repeats. Identical values can stand only once. Like-named read-outs stand apart in the source and are kept apart here.

`O=C(c1ccc(O)cc1O)c1[nH]c(Cl)c(Cl)c1-n1c(C(=O)c2ccc(O)cc2O)cc(Cl)c1Cl` [Compound 24, (4,4′,5,5′-Tetrachloro-1′H-1,3′-bipyrrole-2,2′-diyl)bis((2,4-dihydroxyphenyl)methanone)]: the MIC in assay [1] (setting [7]) was 2 µg/mL (≈ 3.69 µM); in assay [2] (setting [8]), 4 µg/mL (≈ 7.38 µM); in assay [3] (setting [7]), 4 µg/mL (≈ 7.38 µM); in assay [4] (setting [7]), 2 µg/mL (≈ 3.69 µM); in assay [5] (setting [9]), 2 to 8 µg/mL (≈ 3.69 to 14.8 µM); in assay [6] (setting [7]) it was 2 µg/mL (≈ 3.69 µM).
As for `CCOC(=O)CS(=O)(=O)c1ccc(C(=O)c2[nH]c(Cl)c(Cl)c2-n2c(C(=O)c3ccc(S(=O)(=O)CC(=O)OCC)cc3O)cc(Cl)c2Cl)c(O)c1` [Compound 28], the minimum inhibitory concentration (MIC) in assay [1] (Table 2) was >64 µg/mL; in assay [2] (Table 2), 4 µg/mL (≈ 4.94 µM); in assay [3] (Table 2) it was 32 µg/mL (≈ 39.5 µM); in assay [4] (Table 2), >64 µg/mL; in assay [5] (Table 2, data from 4 isolates), 8 µg/mL (≈ 9.87 µM); in assay [6] (Table 2), >64 µg/mL.
As to `O=C(c1ccccc1O)c1[nH]c(Cl)c(Cl)c1-n1c(C(=O)c2ccccc2O)cc(Cl)c1Cl` (racemic) [Compound 1, marinopyrrole A, reference compound], the “higher potency than vancomycin (fold)” value in assay [2] (against moderately resistant VRE (Table 1)) is recorded as 128-256 fold.
`Cc1cc(O)c(C(=O)c2[nH]c(Cl)c(Cl)c2-n2c(C(=O)c3cc(Cl)c(C)cc3O)cc(Cl)c2Cl)cc1Cl` [CCW14]: the MIC was 1 µg/mL (≈ 1.65 µM) in assay [1] (setting [10]); 4 µg/mL (≈ 6.59 µM) in assay [2] (Enterococcus, Table 3, read-out: MIC); 4 µg/mL (≈ 6.59 µM) in assay [3] (setting [10]); 1 µg/mL (≈ 1.65 µM) in assay [4] (setting [10]); 1 µg/mL (≈ 1.65 µM) in assay [5] (setting [11]); 1 µg/mL (≈ 1.65 µM) in assay [6] (setting [10]).
Regarding `O=C(c1ccc(SCc2ccccc2)cc1O)c1[nH]c(Cl)c(Cl)c1-n1c(C(=O)c2ccc(SCc3ccccc3)cc2O)cc(Cl)c1Cl` [Compound 26, (4,4′,5,5′-Tetrachloro-1′H-1,3′-bipyrrole-2,2′-diyl)bis(((2-hydroxy-4-benzylthio)phenyl)methanone)], the MIC was >64 µg/mL in assay [1] (Table 2); 16 µg/mL (≈ 21.2 µM) in assay [2] (Table 2); >64 µg/mL in assay [3] (Table 2); >64 µg/mL in assay [4] (Table 2); 8 to 32 µg/mL in assay [5] (Table 2, data from 4 isolates); >64 µg/mL in assay [6] (Table 2).
For `O=C(c1cc(Cl)c(O)cc1O)c1[nH]c(Cl)c(Cl)c1-n1c(C(=O)c2cc(Cl)c(O)cc2O)cc(Cl)c1Cl` [Compound 19, (4,4′,5,5′-Tetrachloro-1′H-1,3′-bipyrrole-2,2′-diyl)bis((5-chloro-2,4-dihydroxyphenyl)methanone)], the MIC in assay [1] (setting [7]) is 8 µg/mL (≈ 13.1 µM); in assay [2] (setting [8]), 4 µg/mL (≈ 6.55 µM); in assay [3] (setting [7]), 8 µg/mL (≈ 13.1 µM); in assay [4] (setting [7]) it was 32 µg/mL (≈ 52.4 µM); in assay [5] (setting [9]) it was 4 to 8 µg/mL (≈ 6.55 to 13.1 µM); in assay [6] (setting [7]) it was 32 µg/mL (≈ 52.4 µM). Besides, the entries for the “fold decreased potency compared with compound 1m” value in assay [4] (against MRSA) and in assay [5] (against MRSE) were 4-16 fold and 2-16 fold, respectively.
Regarding `O=C(c1ccc(C(F)(F)F)cc1O)c1[nH]c(Cl)c(Cl)c1-n1c(C(=O)c2ccc(C(F)(F)F)cc2O)cc(Cl)c1Cl` [Compound 41, (4,4′,5,5′-tetrachloro-1′H-1,3′-bipyrrole-2,2′-diyl)bis((2-hydroxy-4-(trifluoromethyl)phenyl)methanone)], the MIC in assay [1] (setting [7]) is 1 µg/mL (≈ 1.55 µM); in assay [1] (Table 3) it was 1 µg/mL (≈ 1.55 µM); in assay [2] (setting [8]) it was 0.5 µg/mL (≈ 0.774 µM); in assay [2] (Table 3) it was 0.5 µg/mL (≈ 0.774 µM); in assay [3] (setting [7]), 1 µg/mL (≈ 1.55 µM); in assay [3] (Table 3), 1 µg/mL (≈ 1.55 µM). In addition, the MIC was 0.125 to 0.25 µg/mL (≈ 0.193 to 0.387 µM) in assay [4] (setting [7]); 0.125 to 0.25 µg/mL in assay [4] (Table 3); < 0.008 µg/mL in assay [5] (setting [9]); < 0.008 µg/mL in assay [5] (setting [11]); 0.008 µg/mL (≈ 0.0124 µM) in assay [5] (Staphylococcus epidermidis, against MRSE, read-out: MIC); 0.125 µg/mL (≈ 0.193 µM) in assay [6] (setting [7]). In assay [6] (Table 3), this compound yielded an MIC of 0.125 µg/mL (≈ 0.193 µM). The “fold more potent than marinopyrrole A” value in assay [4] (against MRSA) was 2-4 fold and 4 fold; in assay [5] (against MRSE), > 31 fold and 31 fold; in assay [6] (against MSSA), 4 fold. The “fold more potent than vancomycin” value in assay [4] (against MRSA) is 2-4 fold and 4-8 fold; in assay [5] (against MRSE), > 62 fold and 63-125 fold; in assay [6] (against MSSA) it was 8 fold.
As to `CCOC(=O)CSc1ccc(C(=O)c2[nH]c(Cl)c(Cl)c2-n2c(C(=O)c3ccc(SCC(=O)OCC)cc3O)cc(Cl)c2Cl)c(O)c1` [Compound 25], the MIC in assay [1] (Table 2) is 16 µg/mL (≈ 21.4 µM); in assay [2] (Table 2), 2 µg/mL (≈ 2.68 µM); in assay [3] (Table 2) it was 64 µg/mL (≈ 85.7 µM); in assay [4] (Table 2), 32 to 64 µg/mL; in assay [5] (Table 2, data from 4 isolates), 8 µg/mL (≈ 10.7 µM); in assay [6] (Table 2) it was 64 µg/mL (≈ 85.7 µM).
As for `O=C(O)CS(=O)(=O)c1ccc(C(=O)c2[nH]c(Cl)c(Cl)c2-n2c(C(=O)c3ccc(S(=O)(=O)CC(=O)O)cc3O)cc(Cl)c2Cl)c(O)c1` [Compound 32], the MIC in assay [1] (setting [7]) is > 64 µg/mL; in assay [2] (setting [8]) it was 64 µg/mL (≈ 84.8 µM); in assay [3] (setting [7]), > 64 µg/mL; in assay [4] (setting [7]), > 64 µg/mL; in assay [5] (setting [9]), 8 to 64 µg/mL (≈ 10.6 to 84.8 µM); in assay [6] (setting [7]), > 64 µg/mL.
With `O=C(O)CSc1ccc(C(=O)c2[nH]c(Cl)c(Cl)c2-n2c(C(=O)c3ccc(SCC(=O)O)cc3O)cc(Cl)c2Cl)c(O)c1` [Compound 31], the MIC in assay [1] (setting [7]) was > 64 µg/mL; in assay [2] (setting [8]) it was 32 µg/mL (≈ 46.4 µM); in assay [3] (setting [7]), > 64 µg/mL; in assay [4] (setting [7]), > 64 µg/mL; in assay [5] (setting [9]), 32 to 64 µg/mL (≈ 46.4 to 92.7 µM); in assay [6] (setting [7]) it was > 64 µg/mL.
On to `COc1ccc(CS(=O)(=O)c2ccc(C(=O)c3[nH]c(Cl)c(Cl)c3-n3c(C(=O)c4ccc(S(=O)(=O)Cc5ccc(OC)cc5)cc4O)cc(Cl)c3Cl)c(O)c2)cc1` [Compound 30], for which the MIC in assay [1] (Table 2) is >64 µg/mL; in assay [2] (Table 2), >64 µg/mL; in assay [3] (Table 2), >64 µg/mL; in assay [4] (Table 2), >64 µg/mL; in assay [5] (Table 2, data from 4 isolates), 2 to 16 µg/mL; in assay [6] (Table 2) it was >64 µg/mL.
`COc1ccc(CSc2ccc(C(=O)c3[nH]c(Cl)c(Cl)c3-n3c(C(=O)c4ccc(SCc5ccc(OC)cc5)cc4O)cc(Cl)c3Cl)c(O)c2)cc1` [Compound 27]: the MIC in assay [1] (Table 2) is >64 µg/mL; in assay [2] (Table 2) it was 16 µg/mL (≈ 19.6 µM); in assay [3] (Table 2), >64 µg/mL; in assay [4] (Table 2) it was >64 µg/mL; in assay [5] (Table 2, data from 4 isolates), 8 to 64 µg/mL; in assay [6] (Table 2), >64 µg/mL.
For the compound `O=C(c1ccc(S(=O)(=O)Cc2ccccc2)cc1O)c1[nH]c(Cl)c(Cl)c1-n1c(C(=O)c2ccc(S(=O)(=O)Cc3ccccc3)cc2O)cc(Cl)c1Cl` [Compound 29, (4,4′,5,5′-Tetrachloro-1′H-1,3′-bipyrrole-2,2′-diyl)bis(((2-hydroxy-4-benzylsulfonyl)phenyl)methanone)], the MIC in assay [1] (Table 2) was 64 µg/mL (≈ 78.2 µM); in assay [2] (Table 2) it was 8 µg/mL (≈ 9.77 µM); in assay [3] (Table 2), 32 µg/mL (≈ 39.1 µM); in assay [4] (Table 2), >64 µg/mL; in assay [5] (Table 2, data from 4 isolates) it was 32 µg/mL (≈ 39.1 µM); in assay [6] (Table 2), >64 µg/mL.
